Assay results taken from patent US20050170966A1, “Surfactants and surfactant compositions” (priority 2002, published 2005).

Tests used:
Type in all cases: in vivo
[1] = system: Bindweed (Convolvulus arvensis); assay: Greenhouse trial of adjuvant with glyphosate; conditions: for % kill: 7 DAT; for % fresh wt 33 days (foliage): 33 DAT
Excerpt: (§1) This Example goves the results of greenhouse trials to investigate the adjuvant properties of compound SE2, with a fatty amine ethoxylate (FAE1) for comparitison, used in combination with glyphosate (isopropylamine salt?) as a herbicide against Couchgrass (Agropyron repens) and Bindweed (Convolvulus arvensis). Glyphosate doses of 180, 360 and 540 g(a.e.).ha^−1 were used against A. repens and 540, 810 and 1080 g(a.e.).ha^−1 against C. arvensis. The spray volume was 200 l.ha^−1 and ratios of glyphosate (active ingredient) to adjuvant of 2:0.75 (37.5%); 2:0.5 (25%); 2:0.25 (12.5%) and 2:0.1 (5%) (percentage figres in brackets are by weight adjuvant based on glyphosate a.e.) were tested. Weed kill was visually assessed 7, 14 and 21 days after treatment (DAT) and the % fresh weight of foliage was determined 22 and 33 DAT for A. repens and C. arvensis respectively. The % kill results at 7 DAT are set out in Table 3a and the % fresh weight of foliage determined 22 and 33 DAT is reported in Table 3b below. The % fresh weight of foliage is determined 22 and 33 DAT for A. repens and C. arvensis respectively and the results are included in Table 3b below: […]

[2] = system: Couchgrass (Agropyron repens); assay: Greenhouse trial of adjuvant with glyphosate; conditions: for % kill: 7 DAT; for % fresh wt 22 days (foliage): 22 DAT
Excerpt: as §1

Savoy cabbage = assay: Field trial of glyphosate formulations with adjuvant; conditions: Sav C; 6 DAT; glyphosate 1080 g(a.e).ha^-1, adjuvant 405 g.ha^-1
Procedure: (§2) In this Example, adjuvants of the invention (SE2), plus TAE1 as control, were tested in field trials in formulations including glyphosate (isopropylamine salt) as a herbicide on flax, pea, Savoy cabbage (Sav C) and Italian ryegrass (It R) as target crops. The application rate was 1080 g(a.e).ha^−1, with adjuvant at an application rate of 405 g.ha^−1 (75% of the normal application rate for adjuvants in such formulations of 540 g.ha^−1). The effectiveness of the formulations was by visual assessment of Growth Reduction (Gr Red) and Chlorosis/Necrosis (Chlor) 6 DAT with the values being reported in % (related to an untreated control=0% effect).

Italian ryegrass = assay: as above; conditions: It R; 6 DAT; glyphosate 1080 g(a.e).ha^-1, adjuvant 405 g.ha^-1
Procedure: as §2

flax = assay: as above; conditions: 6 DAT, glyphosate 1080 g(a.e).ha^-1, adjuvant 405 g.ha^-1
Procedure: as §2

pea = assay: as above; conditions: 6 DAT, glyphosate 1080 g(a.e).ha^-1, adjuvant 405 g.ha^-1
Procedure: as §2

1-[Bis-(2-hydroxyethyl)-amino]-2-hydroxypropane-3-(Alc1 15-ethoxylate) [SE2]
% kill ([1]; Gly 540, Adj 5% Gly): 14.29%
% kill ([1]; Gly 540, Adj 12.5% Gly): 14.29%
% kill ([1]; Gly 540, Adj 25% Gly): 14.29%
% kill ([1]; Gly 540, Adj 37.5% Gly): 14.29%
% kill ([1]; Gly 810, Adj 5% Gly): 14.29%
% kill ([1]; Gly 810, Adj 12.5% Gly): 17.86%
% kill ([1]; Gly 810, Adj 25% Gly): 14.29%
% kill ([1]; Gly 810, Adj 37.5% Gly): 14.29%
% kill ([1]; Gly 1080, Adj 5% Gly): 14.29%
% kill ([1]; Gly 1080, Adj 12.5% Gly): 14.29%
% kill ([1]; Gly 1080, Adj 25% Gly): 14.29%
% kill ([1]; Gly 1080, Adj 37.5% Gly): 14.29%
% fresh wt 33 days (foliage) ([1]; Gly 540, 5 wt % adjuvant): 54.61%
% fresh wt 33 days (foliage) ([1]; Gly 540, 12.5 wt % adjuvant): 54.21%
% fresh wt 33 days (foliage) ([1]; Gly 540, 25 wt % adjuvant): 54.97%
% fresh wt 33 days (foliage) ([1]; Gly 540, 37.5 wt % adjuvant): 53.73%
% fresh wt 33 days (foliage) ([1]; Gly 810, 5 wt % adjuvant): 53.91%
% fresh wt 33 days (foliage) ([1]; Gly 810, 12.5 wt % adjuvant): 62.03%
% fresh wt 33 days (foliage) ([1]; Gly 810, 25 wt % adjuvant): 52.01%
% fresh wt 33 days (foliage) ([1]; Gly 810, 37.5 wt % adjuvant): 55.38%
% fresh wt 33 days (foliage) ([1]; Gly 1080, 5 wt % adjuvant): 50.55%
% fresh wt 33 days (foliage) ([1]; Gly 1080, 12.5 wt % adjuvant): 53.29%
% fresh wt 33 days (foliage) ([1]; Gly 1080, 25 wt % adjuvant): 46.2%
% fresh wt 33 days (foliage) ([1]; Gly 1080, 37.5 wt % adjuvant): 43.89%
% kill ([2]; Gly 180, Adj 5% Gly): 17.86%
% kill ([2]; Gly 180, Adj 12.5% Gly): 17.86%
% kill ([2]; Gly 180, Adj 25% Gly): 21.43%
% kill ([2]; Gly 180, Adj 37.5% Gly): 21.43%
% kill ([2]; Gly 360, Adj 5% Gly): 14.29%
% kill ([2]; Gly 360, Adj 12.5% Gly): 28.57%
% kill ([2]; Gly 360, Adj 25% Gly): 32.14%
% kill ([2]; Gly 360, Adj 37.5% Gly): 25%
% kill ([2]; Gly 540, Adj 5% Gly): 28.57%
% kill ([2]; Gly 540, Adj 12.5% Gly): 25%
% kill ([2]; Gly 540, Adj 25% Gly): 35.71%
% kill ([2]; Gly 540, Adj 37.5% Gly): 39.29%
% fresh wt 22 days (foliage) ([2]; Gly 180, 5 wt % adjuvant): 95.49%
% fresh wt 22 days (foliage) ([2]; Gly 180, 12.5 wt % adjuvant): 59.81%
% fresh wt 22 days (foliage) ([2]; Gly 180, 25 wt % adjuvant): 48.07%
% fresh wt 22 days (foliage) ([2]; Gly 180, 37.5 wt % adjuvant): 53.01%
% fresh wt 22 days (foliage) ([2]; Gly 360, 5 wt % adjuvant): 63.31%
% fresh wt 22 days (foliage) ([2]; Gly 360, 12.5 wt % adjuvant): 35.66%
% fresh wt 22 days (foliage) ([2]; Gly 360, 25 wt % adjuvant): 29.69%
% fresh wt 22 days (foliage) ([2]; Gly 360, 37.5 wt % adjuvant): 40.02%
% fresh wt 22 days (foliage) ([2]; Gly 540, 5 wt % adjuvant): 23.83%
% fresh wt 22 days (foliage) ([2]; Gly 540, 12.5 wt % adjuvant): 19.63%
% fresh wt 22 days (foliage) ([2]; Gly 540, 25 wt % adjuvant): 19.6%
% fresh wt 22 days (foliage) ([2]; Gly 540, 37.5 wt % adjuvant): 18.36%
Chlor (%) Chlorosis/Necrosis (Savoy cabbage): 40%
Chlor (%) Chlorosis/Necrosis (Italian ryegrass): 50%
Chlor (%) Chlorosis/Necrosis (flax): 50%
Gr Red (%) Growth Reduction (flax): 30%
Chlor (%) Chlorosis/Necrosis (pea): 80%
Gr Red (%) Growth Reduction (pea): 55%
